Data: ChEMBL document CHEMBL4610081, “Anti-inflammatory Metabolites from Chaetomium nigricolor” (J Nat Prod, 2020)
Calls of active or inactive are those of the source. The calls are words filed in the database; no cut-off is given here.

Test system: RAW264.7
Assay: Antiinflammatory activity against mouse RAW264.7 cells assessed as inhibition of LPS-induced NO production preincubated for 3 hrs followed by LPS-stimulation and measured after 24 hrs by Griess reagent based assay
Format: functional, cell-based

Row | Compound | Activity
1 | NC(=O)c1coc(Cc2ccccc2)cc1=O | inactive
2 | O=C(O)c1ccc(CO)o1 | inactive
